Among the test systems are XF498; HOP-18; DLD-1; DMS-114; M19-MEL; SNB-78; DMS-273; LXFL 529; RXF 631.
Experiment in all cases: NCI-60 cell line screen, 48 h

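1) Cells in 96-well plates. 2) Compound, 48 h, 5 concentrations. 3) Linear interpolation between surrounding doses. 4) Unreached endpoint = highest concentration. The concentration for 50% growth inhibition is given as GI50.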 The source made the active and inactive calls. Cut-off read from the data, not from the text of the source: active = GI50 up to about 1.1 µM and inactive = higher.

For the compound `COc1cc(C(=C2SCCS2)c2nccc3cc(OC)c(OC)cc23)c([N+](=O)[O-])cc1OC`, the GI50 in the test with XF498 was 17.9 µM (inactive); in the test with HOP-18, > 100 µM (inactive); in the test on DLD-1, > 100 µM (inactive); with DMS-114, 41.6 µM (inactive); in the test with M19-MEL, 72.9 µM (inactive); with SNB-78 it was 18 µM (inactive). Moreover, the results for the GI50 in the test on DMS-273 and with LXFL 529 were 34.4 µM (inactive) and 18.5 µM (inactive), respectively.
With `COc1cccc2c1C(=O)c1c(O)c3c(c(O)c1C2=O)CC(O)(C(C)=O)CC3OC1CC([N+](C)(C)C)C(O)C(C)O1` (configuration not stated), the GI50 in the test on XF498 is 10.7 µM (inactive); with RXF 631, 31.1 µM (inactive); with HOP-18, > 100 µM (inactive); with DLD-1, 91.2 µM (inactive); in the test with DMS-114, > 100 µM (inactive); in the test on M19-MEL, 70.6 µM (inactive). For the same compound, the GI50 in the test on SNB-78 is > 100 µM (inactive); in the test with DMS-273, 27.5 µM (inactive); in the test on LXFL 529, 64.9 µM (inactive).
With `S=c1nc(N2CCCCC2)ss1`, the GI50 in the test on XF498 is 20.1 µM (inactive); in the test with RXF 631, 29.4 µM (inactive); in the test on HOP-18 it was 40.6 µM (inactive); with DLD-1 it was 26.7 µM (inactive); with DMS-114 it was 19.7 µM (inactive); with M19-MEL, 18.2 µM (inactive). Moreover, the GI50 in the test on SNB-78 is 32.2 µM (inactive); with DMS-273, 17.5 µM (inactive); with LXFL 529, 15.1 µM (inactive).
On to `Nc1nc(CCc2n[nH]c(N)n2)n[nH]1`, for which the GI50 in the test on RXF 631, with DLD-1, in the test on DMS-114, in the test on M19-MEL, in the test with SNB-78 and with DMS-273 was > 100 µM (inactive) in each case. The GI50 in the test with LXFL 529 was > 100 µM (inactive).
Consider `N#CC(C#N)=Cc1ccc(Oc2ccccc2)cc1`, for which the GI50 was 37.8 µM (inactive) in the test on XF498; 36.3 µM (inactive) in the test on RXF 631; 33.4 µM (inactive) in the test on HOP-18; 14.1 µM (inactive) with DLD-1; 26.2 µM (inactive) with DMS-114; 32 µM (inactive) with M19-MEL. Besides, the GI50 in the test with SNB-78 was 28.2 µM (inactive); in the test with DMS-273, 18.3 µM (inactive); in the test on LXFL 529 it was 25.8 µM (inactive).
As to `Cc1c2cc[n+](C)cc2c(C)c2c1[nH]c1ccc(OC(C)(C)C)cc12`, the GI50 in the test on HOP-18, with DLD-1, in the test on DMS-114, in the test with M19-MEL, in the test with SNB-78 and in the test with DMS-273 was > 100 µM (inactive) each time. Moreover, the GI50 in the test with LXFL 529 is > 100 µM (inactive).
As to `N=C(N)NS(=O)(=O)c1ccc(NCc2c3ccccc3nc3ccccc23)cc1`, the GI50 in the test on RXF 631 is 4.82 µM (inactive); in the test with HOP-18, 9.18 µM (inactive); in the test with DLD-1, 23.5 µM (inactive); in the test with DMS-114 it was 0.157 µM (active); in the test with M19-MEL, 10 µM (inactive); in the test with SNB-78, 23.1 µM (inactive). The GI50 in the test on DMS-273 is 2.1 µM (inactive); with LXFL 529 it was 12.8 µM (inactive).
As to `C/C(=N\NC(N)=S)C(CN(CC(C)C)CC(C)C)C(=O)Nc1ccc(C)cc1C` (configuration not stated), the GI50 with XF498, in the test on HOP-18, in the test with DLD-1, in the test on DMS-114, with M19-MEL and in the test on SNB-78 was > 100 µM (inactive) in each case. For the same compound, the GI50 in the test with DMS-273 and in the test on LXFL 529 was > 100 µM (inactive) in each case.
As to `COC(=O)N/N=C/C(=C/Nc1ccccc1)[N+](=O)[O-]`, the GI50 with XF498, in the test with RXF 631, in the test with HOP-18, in the test with DLD-1, with DMS-114 and in the test with M19-MEL was > 100 µM (inactive) throughout. Further, the GI50 in the test on DMS-273 and in the test with LXFL 529 was > 100 µM (inactive) in each case.
Regarding `CC1=C(C(=O)CC(=O)C(=O)Nc2cccc(Cl)c2C)Sc2ccccc2N1`, the GI50 in the test with XF498, in the test on RXF 631, with HOP-18, in the test with DLD-1, in the test on DMS-114 and with M19-MEL was > 100 µM (inactive) each time. The GI50 in the test on SNB-78 and in the test on LXFL 529 was > 100 µM (inactive) each time.
As to `COS(=O)CCOC(=O)c1ccccc1SSc1ccccc1C(=O)OCCS(=O)OC` (configuration not stated), the GI50 in the test on XF498 was 29.8 µM (inactive); in the test with HOP-18 it was > 100 µM (inactive); in the test with DLD-1, 34.5 µM (inactive); in the test on DMS-114, 16 µM (inactive); with M19-MEL, 21.2 µM (inactive); in the test on SNB-78, > 100 µM (inactive). The GI50 in the test with DMS-273 was 26.4 µM (inactive); in the test on LXFL 529 it was 18.5 µM (inactive).
For the compound `CCN(CC)CCCNc1ncc(C)c2c1c1ccc3c(O)cccc3c1n2C`, the GI50 with XF498 is 15.2 µM (inactive); in the test on HOP-18, 0.635 µM (active); in the test on DLD-1 it was 1.47 µM (inactive); in the test on DMS-114, 1.39 µM (inactive); in the test on SNB-78 it was 14.2 µM (inactive); in the test with DMS-273, 0.76 µM (active). Also, the GI50 in the test on LXFL 529 is 1.61 µM (inactive).
As for `CN(C)CC1(C)CC/C(=C\c2ccccc2)C1=O` (configuration not stated), the GI50 is > 100 µM (inactive) in the test on XF498; 49 µM (inactive) with RXF 631; > 100 µM (inactive) with HOP-18; > 100 µM (inactive) in the test with DLD-1; > 100 µM (inactive) in the test with DMS-114; > 100 µM (inactive) in the test on M19-MEL. For the same compound, the GI50 in the test with SNB-78 and in the test with DMS-273 was > 100 µM (inactive) throughout.
Turning to `C/C(=N\NC(=O)CC(=O)Nc1ccc(Cl)cc1)c1cc2ccccc2oc1=O`, the GI50 with XF498, with HOP-18, in the test with DLD-1, with DMS-114, in the test on M19-MEL and with DMS-273 was > 100 µM (inactive) throughout.
Consider `Nc1ncnc2c1nc(Cl)n2[C@@H]1O[C@@H]2COP(=O)(O)O[C@H]2[C@H]1O` [TOCLADESINE], for which the GI50 with HOP-18 was > 109 µM (inactive); in the test on DLD-1 it was 3.81 µM (inactive); in the test on DMS-114, 26.7 µM (inactive); with M19-MEL, > 300 µM (inactive); in the test on SNB-78 it was 165 µM (inactive); in the test with DMS-273 it was 3.15 µM (inactive).
With `C[C@]12CC[C@H](OC3OC(CO)C(O)C(O)C3O)C[C@H]1CC[C@@H]1[C@@H]2CC[C@]2(C)[C@@H](C3=CCOC3=O)CC[C@]12O` (some centres not stated) [ACTODIGIN], the GI50 in the test on XF498 was 1.44 µM (inactive); with HOP-18, 50 µM (inactive); in the test on DLD-1, 39.7 µM (inactive); in the test with DMS-114 it was 10.2 µM (inactive); in the test with M19-MEL, 11.7 µM (inactive); in the test on SNB-78, 26.5 µM (inactive). Also, in the test on DMS-273, the GI50 was 1.97 µM (inactive).
As for `CCN(CC)c1ccc(C(=C2C=CC(=[N+](CC)CC)C=C2)c2ccc(N(CC)CC)cc2)cc1`, the GI50 in the test with XF498 is 0.0296 µM (active); with RXF 631, 0.194 µM (active); in the test with DLD-1, 0.063 µM (active); with DMS-114, 0.0507 µM (active); in the test on M19-MEL, 0.0948 µM (active); in the test with SNB-78, 0.398 µM (active). In addition, in the test with DMS-273, the GI50 was 0.137 µM (active).
On to `O=C1CCCC[C@H]1[C@H]1CCC[C@@H]([C@H]2CCCCC2=O)C1=O`, for which the GI50 in the test on XF498 is > 100 µM (inactive); in the test on RXF 631, > 100 µM (inactive); in the test with HOP-18, > 100 µM (inactive); in the test with DLD-1, > 100 µM (inactive); with M19-MEL it was > 100 µM (inactive); in the test with SNB-78 it was 3.44 µM (inactive). The GI50 in the test with DMS-273 and in the test on LXFL 529 was > 100 µM (inactive) in each case.
Consider `O=S(=O)(c1ccccc1)N1CCC1c1ccccc1` (configuration not stated), for which the GI50 is 51.9 µM (inactive) with XF498; > 100 µM (inactive) in the test with RXF 631; 51.5 µM (inactive) in the test on HOP-18; 50.1 µM (inactive) in the test on DMS-114; > 100 µM (inactive) in the test with M19-MEL; > 100 µM (inactive) in the test on SNB-78. In the test with DMS-273, the GI50 was > 100 µM (inactive).
`CC(=O)NC1C(OCc2ccccc2)OC(COC(=O)CCCCCCCCCCNc2ccc([N+](=O)[O-])c3[nH]c4ccccc4c(=O)c23)C(O)C1OC(C)C(=O)NC(C)C(=O)NC(CCC(N)=O)C(=O)OCc1ccccc1` (configuration not stated): the GI50 with XF498, in the test with HOP-18, with DLD-1, in the test on DMS-114, in the test on M19-MEL and with SNB-78 was > 100 µM (inactive) throughout. The GI50 in the test with DMS-273 and in the test on LXFL 529 was > 100 µM (inactive) each time.
As to `CCCCCCCC(=O)OCC1OC(n2cc(F)c(=O)[nH]c2=O)C(N)C(O)C1O` (configuration not stated), the GI50 in the test with HOP-18, in the test on DLD-1, with DMS-114, in the test with M19-MEL, in the test with SNB-78 and in the test with DMS-273 was > 100 µM (inactive) throughout. Besides, the GI50 with LXFL 529 is > 100 µM (inactive).
`Cc1ccc(S(=O)(=O)CNC(=S)CCCC(=S)NCS(=O)(=O)c2ccc(C)cc2)cc1`: the GI50 was > 100 µM (inactive) in the test with XF498; 41 µM (inactive) with RXF 631; > 100 µM (inactive) in the test with DLD-1; > 100 µM (inactive) in the test on M19-MEL; 78.9 µM (inactive) in the test on SNB-78; 44.2 µM (inactive) with DMS-273. In addition, the GI50 with LXFL 529 is 44.9 µM (inactive).

Source of the values: ChEMBL document CHEMBL1201862, “PubChem BioAssay data set” (2004).
